Measurements published in paper PMC8328003 (ACS chemical neuroscience, 2021).
“And” between values parts separate entries of the source, which are not always exact repeats. Equal values may be shown once. Read-outs that look alike come from different tables or passages of the source.

Legend:
mMOR = mMOR (Mus musculus, UniProt P42866); experiment: [35S]GTPγS functional assay, CHO membranes; format: biochemical; settings: for mMOR Emax: relative to DAMGO at 1000 nM
mDOR [1] = target: T1, mDOR (Mus musculus, UniProt P32300); experiment: [35S]GTPγS functional assay, CHO membranes; format: biochemical; settings: for mDOR Emax: relative to DPDPE at 1000 nM
mKOR = mKOR (Mus musculus, UniProt P33534); experiment: [35S]GTPγS functional assay, CHO membranes; format: biochemical; settings: for mKOR Emax: relative to U50,488H at 1000 nM
[2] = target: mouse kappa opioid receptor (mKOR) (Mus musculus, UniProt P33534); experiment: Competition binding against 125I-IBNtxA, CHO cell membranes
[3] = target: mouse mu opioid receptor (mMOR) (Mus musculus, UniProt P42866); experiment: as above; settings: for Ki: 125I-IBNtxA (0.1 nM), CHO membranes
mDOR [4] = target: T1, mDOR; experiment: as above
hDOR [5] = target: T2, hDOR (Homo sapiens, UniProt P41143); experiment: BRET βarrestin-2 recruitment, HEK293T cells; format: cell-based; settings: for Emax% ± SEM βarrestin-2 recruitment hDOR: normalized to DPDPE
[6] = target: human mu opioid receptor (hMOR) (Homo sapiens, UniProt P35372); experiment: cell-based; format: cell-based
hMOR [7] = settings: read-out: binding affinity at hMOR; cited from earlier work
C57BL/6J mice [8] = experiment: CLAMS breathing rate; format: in vivo, mouse; settings: 100 nmol, i.c.v., 180 min, versus vehicle
hKOR [9] = target: T3, hKOR (Homo sapiens, UniProt P41145); experiment: BRET βarrestin-2 recruitment, HEK293T cells; format: cell-based; settings: for pEC50 ± SEM βarrestin-2 recruitment hKOR / EC50: BRET; for EC50: read-out: EC50 βarrestin-2 recruitment hKOR
[10] = target: human kappa opioid receptor (hKOR) (Homo sapiens, UniProt P41145); experiment: BRET Gi-1 activation, HEK293T cells; format: cell-based; settings: for pEC50 ± SEM Gi-1 activation hKOR / EC50: BRET; for EC50: read-out: EC50 Gi-1 activation hKOR
hDOR [11] = target: T2, hDOR; experiment: BRET Gi-1 activation, HEK293T cells; format: cell-based; settings: for Emax% ± SEM Gi-1 activation hDOR: normalized to control agonist (DPDPE; SNC80 in Figure 6G)
hMOR [12] = target: T4, hMOR (Homo sapiens, UniProt P35372); experiment: BRET βarrestin-2 recruitment, HEK293T cells; format: cell-based
C57BL/6J mice [13] = experiment: 55 °C warm-water tail-withdrawal assay; format: in vivo, mouse; settings: for antinociception ED50 (and 95% C.I.): WT C57BL/6J mice, from peak effect
C57BL/6J mice [14] = experiment: CLAMS locomotor activity; format: in vivo, mouse; settings: 100 nmol, i.c.v., 180 min, versus vehicle
hα2A = target: T5, hα2A (Homo sapiens, UniProt P08913); experiment: NIMH-PDSP radioligand binding; settings: read-out: affinity Ki hα2A
T5 sequence (P08913 1-465): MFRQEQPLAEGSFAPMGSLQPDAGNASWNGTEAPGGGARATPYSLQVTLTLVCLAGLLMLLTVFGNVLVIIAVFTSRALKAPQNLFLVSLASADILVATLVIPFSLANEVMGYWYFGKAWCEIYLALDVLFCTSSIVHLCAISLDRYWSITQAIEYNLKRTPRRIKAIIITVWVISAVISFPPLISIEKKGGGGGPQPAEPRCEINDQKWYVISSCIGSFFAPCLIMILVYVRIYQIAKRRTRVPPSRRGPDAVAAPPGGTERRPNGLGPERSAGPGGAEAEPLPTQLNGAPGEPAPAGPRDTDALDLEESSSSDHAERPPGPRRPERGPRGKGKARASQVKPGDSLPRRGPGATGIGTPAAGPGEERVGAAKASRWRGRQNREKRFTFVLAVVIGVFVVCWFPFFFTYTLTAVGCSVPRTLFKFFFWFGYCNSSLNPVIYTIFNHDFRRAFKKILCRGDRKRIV

hMOR [15] = target: T4, hMOR; format: cell-based
hMOR [16] = target: T4, hMOR; format: cell-based; remark: listed apart in the source
hMOR [17] = target: T4, hMOR; experiment: NIMH-PDSP radioligand binding; settings: read-out: affinity Ki hMOR
hSERT = hSERT (Homo sapiens, UniProt P31645); experiment: NIMH-PDSP radioligand binding; settings: read-out: affinity Ki hSERT
hH1 = hH1 (Homo sapiens, UniProt P35367); experiment: NIMH-PDSP radioligand binding; settings: read-out: affinity Ki hH1
hKOR [18] = target: T3, hKOR; experiment: NIMH-PDSP radioligand binding; settings: read-out: affinity Ki hKOR
hDAT = hDAT (Homo sapiens, UniProt Q01959); experiment: NIMH-PDSP radioligand binding; settings: read-out: affinity Ki hDAT
hNET = hNET (Homo sapiens, UniProt P23975); experiment: NIMH-PDSP radioligand binding; settings: read-out: affinity Ki hNET
MOR = settings: ex vivo; cited from earlier work
hNMDA = experiment: NIMH-PDSP radioligand binding; set-up: species or system human; settings: read-out: affinity Ki hNMDA
[19] = affinity (Ki) mKOR, 125I-IBNtxA (0.1 nM)
[20] = affinity (Ki) mDOR, 125I-IBNtxA (0.1 nM)
[21] = i.c.v., MOR KO / KOR KO mice versus WT

| Molecule | mMOR Emax (mMOR) | mDOR Emax (mDOR [1]) | mKOR Emax (mKOR) | Ki [2, 19] | Ki ([3]; affinity (Ki) mMOR) | Ki (mDOR [4]; [20]) | fold less potent than DAMGO, Gi-1 hMOR [6] | effect on breath rate (C57BL/6J mice [8]) | mKOR EC50 (mKOR; [35S]GTPγS) | receptor dependence of antinociception (C57BL/6J mice [13]; [21]) | antinociception ED50 (and 95% C.I.) (C57BL/6J mice [13]; i.c.v.) | locomotor effect (C57BL/6J mice [14]) | Ki (hα2A) | Emax% ± SEM βarrestin-2 recruitment hDOR (hDOR [5]) | Emax% ± SEM Gi-1 activation hMOR [6] | pEC50 ± SEM βarrestin-2 recruitment hKOR (hKOR [9]) | Emax% ± SEM βarrestin-2 recruitment hKOR (hKOR [9]; normalized to U50,488H) | EC50 (hKOR [9]) | pEC50 ± SEM Gi-1 activation hKOR [10] | Emax% ± SEM Gi-1 activation hKOR ([10]; normalized to U50,488H) | further results |
| --- | --- | --- | --- | --- | --- | --- | --- | --- | --- | --- | --- | --- | --- | --- | --- | --- | --- | --- | --- | --- | --- |
| CC[C@@H]1CN2CC[C@]3(C(=O)Nc4ccccc43)[C@@H]2C[C@@H]1/C(=C\OC)C(=O)OC [corynoxine B] | no activity | no activity | no activity | > 1 µM | 5010 ± 388 nM | 1680 ± 261 nM |  |  |  |  |  |  |  |  |  |  |  |  |  |  | Ki ([2]; affinity (Ki) mKOR, 125I-IBNtxA (0.1 nM), μM): > 10 µM |
| CC[C@@H]1CN2CC[C@@]3(C(=O)Nc4ccccc43)[C@@H]2C[C@@H]1/C(=C\OC)C(=O)OC [corynoxine] | 136.4 ± 3.3% | no activity | no activity | 3.08 ± 1.73 µM | 140 nM and 141 nM | 1270 ± 226 nM | 58 fold | no depression of breath rate | no activity | MOR dependent | 3.43 (0.53–6.41) nmol | did not produce significant hyperlocomotion |  |  |  |  |  |  |  |  | Emax (hDOR [5]; HEK-293T, read-out: Emax% ± SEM βarrestin-2 recruitment hDOR): < 20%; EC50 [6]: 1630 nM; Emax ([6]; HEK-293T, read-out: Emax% ± SEM Gi-1 activation hMOR): 96.5 ± 4.69%; EC50 (mMOR): 203 ± 4.4 nM; Emax at 1 µM (mMOR; read-out: mMOR Emax, relative to DAMGO at 1000 nM): 136%; Ki (hMOR [7]): 16.4 nM; effect on breath rate (C57BL/6J mice [8]; listed as Corynoxine): increase in breath rates; Emax (hKOR [9]; HEK-293T, read-out: Emax% ± SEM βarrestin-2 recruitment hKOR): < 20%; Emax ([10]; HEK-293T, read-out: Emax% ± SEM Gi-1 activation hKOR): < 20%; Emax (hDOR [11]; HEK-293T, read-out: Emax% ± SEM Gi-1 activation hDOR): < 20%; Emax (hMOR [12]; HEK-293T, read-out: Emax% ± SEM βarrestin-2 recruitment hMOR): < 20% |
| C=C[C@H]1CN2CCc3c([nH]c4cccc(OC)c34)[C@H]2C[C@@H]1/C(=C\OC)C(=O)OC [isopaynantheine] | 50 ± 5% | no activity | 93.5 ± 5% |  |  |  |  |  |  | MOR independent and KOR dependent |  |  | 2150 nM | < 20% | < 20% | 6.22 ± 0.43 | < 20% | 599 nM | 6.25 ± 0.066 | 80% | EC50 (mMOR; read-out: mMOR EC50, [35S]GTPγS): 192 ± 5.8 nM; Emax% ± SEM Gi-1 antagonism at MOR (hMOR [15]): 156.91 ± 13.49%; Emax% ± SEM βarrestin-2 antagonism at MOR (hMOR [16]): 106 ± 8.67%; Ki (hMOR [17]): 122 nM; Ki (hSERT): 5110 nM; Emax% ± SEM Gi-1 activation hKOR ([10]; normalized to U50,488H, listed as Isopaynantheine): 80.5 ± 2.9%; EC50 [10]: 560 nM; Emax% ± SEM Gi-1 activation hDOR (hDOR [11]): < 20%; Ki (hH1): 206 nM; Emax% ± SEM βarrestin-2 recruitment hMOR (hMOR [12]; normalized to DAMGO): < 20%; EC50 (mKOR; read-out: mKOR EC50, [35S]GTPγS): 282 ± 18 nM; Ki ([2]; read-out: affinity (Ki) mKOR, 125I-IBNtxA (0.1 nM)): 0.325 µM and 0.326 µM; Ki (hKOR [18]): 27 nM; Ki ([3]; read-out: affinity (Ki) mMOR): 91.8 ± 5.8 nM; Ki (mDOR [4]; read-out: affinity (Ki) mDOR, 125I-IBNtxA (0.1 nM)): 823 ± 127 nM; Ki (hDAT): 5070 nM |
| CC[C@H]1CN2CCc3c([nH]c4cccc(OC)c34)[C@H]2C[C@@H]1/C(=C\OC)C(=O)OC [mitraciliatine] |  |  |  |  |  |  |  | no respiratory depression |  | MOR dependent and, surprisingly, independent of KOR |  | no significant hyperlocomotion | 2150 nM | < 20% |  | 6.42 ± 0.06 | 104% | 383 nM | 6.57 ± 0.06 | 114.32 ± 2.42% | effect on breath rate (C57BL/6J mice [8]; listed as Mitraciliatine): increase in breath rates; Emax% ± SEM βarrestin-2 recruitment hKOR (hKOR [9]; normalized to U50,488H, listed as Mitraciliatine): 104.13 ± 2.57%; EC50 [10]: 269 nM; maximal antinociception (ceiling effect, % MPE) (C57BL/6J mice [13]; i.c.v., WT mice, mitraciliatine at 100 nmol): 67%; Ki (hNET): 6600 nM; Ki (hKOR [18]): 73 nM |
| CN1CC[C@]23c4c5ccc(O)c4O[C@H]2[C@@H](O)C=C[C@H]3[C@H]1C5 [morphine, reference compound] |  |  |  |  |  |  |  | significant decrease in breath rate |  |  | 4.77 (1.49–28.8) nmol | significant locomotor effect |  |  |  |  |  |  |  |  |  |
| corynantheidine |  | no activity | no activity |  |  |  | 20 fold |  | no activity |  |  |  |  | < 20% | 37% and 37.2 ± 4.30% |  |  |  |  |  | fold less potent than DAMGO, [35S]GTPγS (mMOR; mMOR): about 30 fold; mMOR Emax (mMOR; listed as corynanthedine): 74.13 ± 1.24%; Emax% ± SEM βarrestin-2 recruitment hKOR (hKOR [9]): < 20%; Emax% ± SEM Gi-1 activation hKOR [10]: < 20%; Emax% ± SEM Gi-1 activation hDOR (hDOR [11]): < 20%; Emax% ± SEM βarrestin-2 recruitment hMOR (hMOR [12]): < 20%; mDOR EC50 (mDOR [1]; [35S]GTPγS): no activity; agonist action in guinea pig ileum (MOR): no agonist actions; maximal antinociception (ceiling effect, % MPE) (C57BL/6J mice [13]; mouse, in vivo): 50%; receptor dependence of antinociception (C57BL/6J mice [13]; mouse, in vivo): MOR dependent; Ki (hNMDA): 83 nM; fold higher mMOR affinity than mitragynine ([3]; same binding assay): ~4 fold |
